Measured values published in patent US20210330611A1, “THERAPY FOR NEUROLOGICAL DISEASES/DISORDERS” (priority 2020, published 2021).
Counter-ions that a name gives are not always drawn. Like-named read-outs stand apart in the source and are kept apart here.

Columns and labels:
[1] = tested on: fibrin-induced microglia activation; assay: Image-based assay of fibrin-induced microglia activation (HTS and dose response); type: cell-based, rat; settings: primary microglia HTS, fibrin stimulation, compounds at 10 μM; for inhibition at 10 µM: Rattus norvegicus, Microglia, read-out: Fibrin % inhibition
[2] = tested on: LPS-induced microglia activation; assay: Image-based assay of LPS-induced microglia activation (HTS and dose response); type: cell-based, rat; settings: primary microglia HTS, LPS stimulation, compounds at 10 μM; for inhibition at 10 µM: Rattus norvegicus, Microglia, read-out: LPS % inhibition
[3] = tested on: fibrin- and LPS-induced microglia activation; assay: cells; type: cell-based, rat; settings: quadrant by fibrin and LPS inhibition, HTS at 10 μM
primary rat microglia [4] = tested on: primary rat microglia
primary rat microglia [5] = assay: Cell toxicity (dead cells, size <150 μm2) in coated fibrin (cFib) assay; settings: primary microglia HTS, fibrin assay, dead cells (size <150 μm2);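 further: share of dead cells sized under 150 µm2 at 10 µM in fibrin-stimulated microglia HTS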

| SMILES | inhibition at 10 µM [1] | inhibition at 10 µM [2] | Quadrant (FIG. 5b) [3] | LPS % cell toxicity (primary rat microglia [4]; rat) | Fibrin % cell toxicity (primary rat microglia [5]) | Fibrin % inhibition [1] | LPS % inhibition [2] | LPS % cell toxicity (primary rat microglia [4]) |
| --- | --- | --- | --- | --- | --- | --- | --- | --- |
| CC(=O)NC(Cc1ccccc1)C(=O)O (stereo not drawn) [Afalanine] | 0% | 10% | Q4 | 0% | 1% |  |  |  |
| NC(=O)c1ccc([N+](=O)[O-])cc1Cl [Aklomide] | -18% | -2% | Q4 | 0% | 0% |  |  |  |
| CC(N)C(=O)OC(C)(C)Cc1ccc(Cl)cc1.Cl (stereo not drawn) [Alaproclate Hydrochloride, Alaproclate] |  |  | Q4 |  | 1% | −7% | 15% | 0% |
| C=C1/C(=C\C=C2/CCC[C@]3(C)[C@@H]([C@H](C)CCCC(C)C)CC[C@@H]23)C[C@@H](O)C[C@@H]1O [Alfacalcidol] | -26% | 4% | Q4 | 0% | 1% |  |  |  |
| COc1cc2nc(N(C)CCCNC(=O)C3CCCO3)nc(N)c2cc1OC.Cl (stereo not drawn) [Alfuzosin Hydrochloride, Alfuzosin] |  |  | Q4 |  | 1% | 1% | 18% | 0% |
| CC(CN(C)C)CN1c2ccccc2Sc2ccccc21 (stereo not drawn) [Alimemazine] | 32% | 39% | Q4 | 0% | 1% |  |  |  |
| COCCCOc1cc(C[C@@H](C[C@H](N)[C@@H](O)C[C@H](C(=O)NCC(C)(C)C(N)=O)C(C)C)C(C)C)ccc1OC [Aliskiren] | 2% | 21% | Q4 | 0% | 1% |  |  |  |
| NC(=O)NC1NC(=O)NC1=O (stereo not drawn) [Allantoin] | -21% | 6% | Q4 | 0% | 1% |  |  |  |
| C=CCN=C=S [Allylisothiocyanate] | 11% | 18% | Q4 | 0% | 1% |  |  |  |
| C=CCNC(N)=S [Allylthiourea] | -7% | 11% | Q4 | 0% | 1% |  |  |  |
| O=C1c2c(O)cccc2C([C@@H]2O[C@H](CO)[C@@H](O)[C@H](O)[C@H]2O)c2cc(CO)cc(O)c21 (stereo partly drawn) [Aloin] | -35% | 14% | Q4 | 0% | 1% |  |  |  |
| CC1(C)C(C=C(Cl)Cl)C1C(=O)OC(C#N)c1cccc(Oc2ccccc2)c1 (stereo not drawn) [Alpha-cypermethrin] | -15% | 11% | Q4 | 0% | 1% |  |  |  |
| Cc1nnc2n1-c1ccc(Cl)cc1C(c1ccccc1)=NC2 [Alprazolam] | 33% | 20% | Q4 | 0% | 1% |  |  |  |
| C=CCSCC1Nc2cc(Cl)c(S(N)(=O)=O)cc2S(=O)(=O)N1 (stereo not drawn) [Althiazide] | -11% | 12% | Q4 | 1% | 1% |  |  |  |
| C=CC[C@]1(O)CC[C@H]2[C@@H]3CCC4=CC(=O)CCC4=C3C=C[C@@]21C [Altrenogest] | 6% | 15% | Q4 | 0% | 1% |  |  |  |
| CCN(CCCc1ccccc1)CCCc1ccccc1 [Alverine] | -17% | 6% | Q4 | 0% | 0% |  |  |  |
| Nc1c(Br)cc(Br)cc1CN[C@H]1CC[C@H](O)CC1 [Ambroxol Hydrochloride] | -19% | 9% | Q4 | 0% | 0% |  |  |  |
| NCC[C@H](O)C(=O)N[C@@H]1C[C@H](N)[C@@H](O[C@H]2O[C@H](CN)[C@@H](O)[C@H](O)[C@H]2O)[C@H](O)[C@H]1O[C@H]1O[C@H](CO)[C@@H](O)[C@H](N)[C@H]1O.O=S(=O)(O)O.O=S(=O)(O)O [Amikacin Sulfate] |  |  | Q4 |  | 1% | 3% | 1% | 0% |
| N=C(N)NN [Aminoguanidine] | -25% | 12% | Q4 | 0% | 0% |  |  |  |
| Nc1ccc(C(=O)NCC(=O)O)cc1 [Aminohippuric Acid] | -7% | 16% | Q4 | 1% | 1% |  |  |  |
| NCC(O)CC(=O)O (stereo not drawn) [Aminohydroxybutyric Acid] |  |  | Q4 |  | 1% | −4% | 17% | 0% |
| CC(CC(C(N)=O)(c1ccccc1)c1ccccc1)N(C)C (stereo not drawn) [Aminopentamide Sulfate] | 3% | 12% | Q4 | 0% | 1% |  |  |  |
| Cc1c(N(C)C)c(=O)n(-c2ccccc2)n1C [Aminophenazone] | -41% | 20% | Q4 | 1% | 1% |  |  |  |
| Nc1nc(N)c2nc(CNc3ccc(C(=O)N[C@@H](CCC(=O)O)C(=O)O)cc3)cnc2n1 [Aminopterin] | -12% | 17% | Q4 | 0% | 1% |  |  |  |
| Nc1nccs1 [Aminothiazole] | -31% | 17% | Q4 | 1% | 1% |  |  |  |
| Cc1ccc(/N=C/N(C)/C=N/c2ccc(C)cc2C)c(C)c1 [Amitraz] | -18% | 9% | Q4 | 0% | 0% |  |  |  |
| CC(C)c1ccc2oc3nc(N)c(C(=O)O)cc3c(=O)c2c1 [Amlexanox] | -17% | -4% | Q4 | 0% | 0% |  |  |  |
| CCC(C)(C)c1ccc(CC(C)CN2C[C@@H](C)O[C@@H](C)C2)cc1 (stereo partly drawn) [Amorolfine] | 6% | 22% | Q4 | 0% | 1% |  |  |  |
| CC1(C)S[C@@H]2[C@H](NC(=O)[C@H](N)c3ccccc3)C(=O)N2[C@H]1C(=O)O [Ampicillin] | 1% | 15% | Q4 | 0% | 1% |  |  |  |
| CCCc1ncc(C[n+]2ccccc2C)c(N)n1 [Amprolium] | -10% | 8% | Q4 | 0% | 1% |  |  |  |
